Columns and labels:
[1] = tested on: interferon-α; test: Interferon-α induction in human cells, PBM; type: cell-based; details: 24 hours
[2] = tested on: interferon; test: Interferon induction in mice; type: in vivo; details: mouse serum
In short: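 Mouse serum collected at 1, 2 and 4 h (separate groups), pooled, stored at −70° C, then assayed as for human-cell interferon. Values in α/β reference units/mL against a mouse MU-1-IF standard; "<" marks levels below assay sensitivity.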

[3] = tested on: MC-26 colon tumor cells; test: Inhibition of MC-26 tumors in mice, 14 day lung colony count; type: in vivo; details: lung colonies day 14, 4×10^4 MC-26 cells i.v., oral 30 mg/kg on days 3-7 and 10-14; control 385 ± 31
Method: The mice are sacrificed 14 days later. […] Five mice are in each treatment group and comparisons are made to controls. […] The mice in the control groups were dosed orally with saline (10 mL/kg) on days 3, 4, 5, 6, and 7, and with water (10 mL/kg) on days 10, 11, 12, 13, and 14.

[4] = tested on: vesicular stomatitis virus (VSV); test: microbe, parasite or virus in culture; type: cell-based; details: Vesicular stomatitis virus, read-out: VSV Yield Inhibition
[5] = tested on: Herpes simplex virus Type II strain 333; test: Antiviral activity in guinea pigs infected with Herpes simplex virus Type II (lesion inhibition); type: in vivo; details: oral once daily for four days
From the text: Female Hartley guinea pigs weighing 200 to 250 g are anesthetized with methoxyflurane (available under the […] from Pitman-Moore, Inc., Washington Crossing, N.J.), after which the vaginal area is swabbed with a dry cotton swab. The guinea pigs are then infected intravaginally with a cotton swab saturated with Herpes simplex virus Type II strain 333 (1×10^5 plaque forming units/mL). Guinea pigs are assigned to groups of 7 animals; one group for each treatment and one to serve as a control (vehicle treated). The compounds of the invention are formulated in water containing 5% Tween 80 (a polyoxyethylene sorbitan monooleate available from Aldrich Chemical Company, Inc., Milwaukee, Wis.). The, guinea pigs are treated orally once daily for four consecutive days starting 24 hours after infection. Antiviral activity is evaluated by comparing lesion development in compound-treated versus vehicle-treated guinea pigs. […] The maximum lesion score of each guinea pig is used to calculate the percentage lesion inhibition. The percentage lesion inhibition is calculated as follows: […]

[6] = tested on: interferon; test: Interferon induction in guinea pigs (serum interferon titer); type: in vivo; details: guinea pig serum 24 hours after initial oral dose
From the text: Female Hartley guinea pigs weighing 200 to 250 g are anesthetized with methoxyflurane (available under the […] from Pitman-Moore, Inc., Washington Crossing, N.J.), after which the vaginal area is swabbed with a dry cotton swab. The guinea pigs are then infected intravaginally with a cotton swab saturated with Herpes simplex virus Type II strain 333 (1×10^5 plaque forming units/mL). Guinea pigs are assigned to groups of 7 animals; one group for each treatment and one to serve as a control (vehicle treated). The compounds of the invention are formulated in water containing 5% Tween 80 (a polyoxyethylene sorbitan monooleate available from Aldrich Chemical Company, Inc., Milwaukee, Wis.). The, guinea pigs are treated orally once daily for four consecutive days starting 24 hours after infection. Twenty-four hours after the initial dose of test compound has been administered, blood is obtained from 3 guinea pigs from each treatment group by cardiac puncture of methoxyflurane anesthetized animals. Blood is pooled and allowed to clot at room temperature. After low speed centrifugation, serum is collected and stored at -70° C. until analysis. Interferon levels in the guinea pig serum are determined in a standard microtiter assay using transformed guinea pig cells (ATCC CRL 1405). The interferon assay is done in 96 well microtiter plates. Confluent monolayers of transformed guinea pig cells are treated with dilutions of guinea pig serum made with medium 199 (GIBCO, Grand Island, N.Y.). The cell and serum dilutions are incubated at 37° C. overnight. The following day, the medium and serum are removed and about 10 plaque forming units of Mengovirus are added to each well. Controls consist of wells that receive no guinea pig serum (virus positive control) and wells that receive no virus (virus negative control). Cells and virus are incubated for 2 to 3 days at 37° C. before quantifying for viral cytopathic effect. The viral cytopathic effect is quantified by staining with 0.05% crystal violet followed by spectrophotometric absorbance measurements. The titer of interferon in serum is expressed as units/mL and is the reciprocal of the highest dilution that protects cells from virus.

[7] = tested on: interferon-α; test: Interferon-α induction in human cells, diluted whole blood; type: cell-based; details: 24 hours

| SMILES | Interferon-α induction ([1]; dose concentration 0.01 μg/mL) | Interferon-α induction ([1]; dose concentration 0.05 μg/mL) | Interferon-α induction ([1]; dose concentration 0.10 μg/mL) | Interferon-α induction ([1]; dose concentration 0.50 μg/mL) | Interferon-α induction ([1]; dose concentration 1.0 μg/mL) | Interferon-α induction ([1]; dose concentration 5.0 μg/mL) | Interferon induction in mice ([2]; oral 0.3 mg/kg, 1 hr) | Interferon induction in mice ([2]; oral 0.3 mg/kg, 2 hr) | Interferon induction in mice ([2]; oral 0.3 mg/kg, 4 hr) | Interferon induction in mice ([2]; oral 1 mg/kg, 1 hr) [Reference Units/mL] | Interferon induction in mice ([2]; oral 1 mg/kg, 2 hr) [Reference Units/mL] | Interferon induction in mice ([2]; oral 1 mg/kg, 4 hr) | Interferon induction in mice ([2]; oral 3 mg/kg, 1 hr) [Reference Units/mL] | Interferon induction in mice ([2]; oral 3 mg/kg, 2 hr) [Reference Units/mL] | Interferon induction in mice ([2]; oral 3 mg/kg, 4 hr) [Reference Units/mL] | Interferon induction in mice ([2]; oral 10 mg/kg, 1 hr) [Reference Units/mL] | Interferon induction in mice ([2]; oral 10 mg/kg, 2 hr) [Reference Units/mL] | Interferon induction in mice ([2]; oral 10 mg/kg, 4 hr) [Reference Units/mL] | Number of Colonies [3] | % Lesion Inhibition ([5]; dose 0.5 mg/kg) [%] | also measured |
| --- | --- | --- | --- | --- | --- | --- | --- | --- | --- | --- | --- | --- | --- | --- | --- | --- | --- | --- | --- | --- | --- |
| CSCc1nc2c(N)nc3ccccc3c2n1Cc1ccccc1 [Example 31, 2-Methylthiomethyl-1-phenylmethyl-1H-imidazo-[4,5-c]quinolin-4-amine] | <4 α Reference Units/mL | 18 α Reference Units/mL | 2500 α Reference Units/mL | 370 α Reference Units/mL | 280 α Reference Units/mL | 370 α Reference Units/mL | <61 Reference Units/mL | <61 Reference Units/mL | <61 Reference Units/mL | <61 | 140 | ≦61 Reference Units/mL | 420 | 420 | 320 | 960 | 5000 | 550 | 221 ± 37 |  | log reduction at 1 µg/mL [4]: 5; log reduction at 5 µg/mL [4]: 5; log reduction at 10 µg/mL [4]: 6 |
| CC(C)Cn1c(CN=[N+]=[N-])nc2c(N)nc3ccccc3c21 [Example 11, 2-Azidomethyl-1-(2-methylpropyl)-1H-imidazo-[4,5-c]quinolin-4-amine] | 330 α Reference Units/mL | 330 α Reference Units/mL | 570 α Reference Units/mL | 570 α Reference Units/mL | 570 α Reference Units/mL | 570 α Reference Units/mL |  |  |  | 280 | 1100 | 71 Reference Units/mL | 490 | 1900 | 30 | 1100 | 2500 | 280 | 204 ± 28 | 100 | % Lesion Inhibition ([5]; dose 0.1 mg/kg): 50%; % Lesion Inhibition ([5]; dose 1 mg/kg): 100%; Reference Units/mL (interferon in serum) ([6]; 0.5 mg/kg): >12,800 Units/mL; Reference Units/mL (interferon in serum) ([6]; 1 mg/kg): >12,800 Units/mL; Interferon-α induction ([7]; dose concentration 0.10 μg/mL): 330 α Reference Units/mL; Interferon-α induction ([7]; dose concentration 0.50 μg/mL): 330 α Reference Units/mL; Interferon-α induction ([7]; dose concentration 1.0 μg/mL): 250 α Reference Units/mL; Interferon-α induction ([7]; dose concentration 5.0 μg/mL): 140 α Reference Units/mL; Interferon induction in mice ([2]; oral 30 mg/kg, 1 hr): 850 Reference Units/mL; Interferon induction in mice ([2]; oral 30 mg/kg, 2 hr): 2500 Reference Units/mL; Interferon induction in mice ([2]; oral 30 mg/kg, 4 hr): 40 Reference Units/mL |
| COCc1nc2c(N)nc3ccccc3c2n1CC(C)C [Example 34, 2-Methoxymethyl-1-(2-methylpropyl)-1H-imidazo[4,5-c]quinolin-4-amine] | <4 α Reference Units/mL | <4 α Reference Units/mL | 1600 α Reference Units/mL | 550 α Reference Units/mL | 180 α Reference Units/mL | 200 α Reference Units/mL | ≦61 Reference Units/mL | ≦61 Reference Units/mL | ≦61 Reference Units/mL | 140 | 320 | ≦61 Reference Units/mL | 420 | 420 | 140 | 1100 | 1100 | 180 | 196 ± 20 |  |  |
| CC(C)Cn1c(CN2CCOCC2)nc2c(N)nc3ccccc3c21 [Example 12, 1-(2-Methylproyl)-2-morpholinomethyl-1H-imidazo-[4,5-c]quinolin-4-amine] |  |  |  |  |  |  |  |  |  | 94 | 160 | <18 Reference Units/mL | 54 | 40 | <18 | 850 | 850 | 40 | 149 ± 21 | 82 | % Lesion Inhibition ([5]; dose 2 mg/kg): 100%; Reference Units/mL (interferon in serum) ([6]; 0.5 mg/kg): >12,800 Units/mL; Reference Units/mL (interferon in serum) ([6]; 2 mg/kg): >12,800 Units/mL; Interferon-α induction ([7]; dose concentration 0.10 μg/mL): <1.8 α Reference Units/mL; Interferon-α induction ([7]; dose concentration 0.50 μg/mL): 37 α Reference Units/mL; Interferon-α induction ([7]; dose concentration 1.0 μg/mL): 140 α Reference Units/mL; Interferon-α induction ([7]; dose concentration 5.0 μg/mL): 330 α Reference Units/mL; Interferon induction in mice ([2]; oral 30 mg/kg, 1 hr): 850 Reference Units/mL; Interferon induction in mice ([2]; oral 30 mg/kg, 2 hr): 5800 Reference Units/mL; Interferon induction in mice ([2]; oral 30 mg/kg, 4 hr): 40 Reference Units/mL |
